The source of these data is US8492559B2, “Substituted indole compounds” (Gruenenthal GmbH, priority 2009, dated 2013).

A word on the inhibition: it is the share of the control response that was lost under treatment.

The test addresses T1, human B1R receptor (hB1R) (Homo sapiens, UniProt P46663).
T1 construct: expressed in transfected cells; host or cells: CHO K1 cells
T1 sequence (P46663 1-353): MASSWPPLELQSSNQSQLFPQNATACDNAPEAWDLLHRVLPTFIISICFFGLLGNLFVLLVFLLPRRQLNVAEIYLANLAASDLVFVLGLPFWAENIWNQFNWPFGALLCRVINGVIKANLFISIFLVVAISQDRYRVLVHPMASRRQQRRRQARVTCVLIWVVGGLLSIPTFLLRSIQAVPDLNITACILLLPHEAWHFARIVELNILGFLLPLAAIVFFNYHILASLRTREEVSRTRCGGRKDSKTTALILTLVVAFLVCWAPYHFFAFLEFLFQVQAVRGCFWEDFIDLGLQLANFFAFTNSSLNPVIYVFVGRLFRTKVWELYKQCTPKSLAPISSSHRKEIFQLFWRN
In words: Functional investigation on the bradykinin 1 receptor (B1R), FLIPR Ca2+ assay, hB1R cells. Conditions: CHO-K1, 10 μM test substance; CHO K1 cells with human B1R; agonist Lys-Des-Arg9 bradykinin; % of maximum achievable inhibition; read-out: B1R antagonism, human [10 μM] % inhibition. The test is classed as cell-based. How it is done:
The agonistic or antagonistic action of substances can be quantified on the bradykinin 1 receptor (B1R) of the human and rat species with ectopically expressing cell lines (CHO K1 cells) and with the aid of a Ca^2+-sensitive dye (Fluo-4) using a fluorescent imaging plate reader (FLIPR). The indication in % activation is based on the Ca^2+ signal after addition of Lys-Des-Arg^9 bradykinin (0.5 nM) or Des-Arg^9 bradykinin (100 nM). Antagonists lead to a suppression of the Ca^2+ influx following administration of the agonist. The % inhibition in comparison with the maximum achievable inhibition is indicated.
1. Functional Investigation on the Bradykinin 1 Receptor (B1R)
The agonistic or antagonistic action of substances can be determined on the bradykinin 1 receptor (B1R) of the human and rat species with the following assay. According to this assay, the Ca^2+ inflow through the channel is quantified with the aid of a Ca^2+-sensitive dye (Fluo-4 type, Molecular Probes Europe BV, Leiden, Netherlands) in a fluorescent imaging plate reader (FLIPR, Molecular Devices, Sunnyvale, USA).
Chinese hamster ovary cells (CHO K1 cells) which are stably transfected with the human B1R gene (hB1R cells) or the B1R gene of the rat (rB1R cells) are used. For functional investigations these cells are plated-out onto black 96-well plates with a clear base (BD Biosciences, Heidelberg, Germany or Greiner, Frickenhausen, Germany) in a density of 20,000-35,000 cells/well. Overnight the cells are incubated at 37° C. and 5% CO2 in culture medium (hB1R cells: Ham's Nutrient Mixture F12, Gibco Invitrogen GmbH, Karlsruhe, Germany or DMEM, Sigma-Aldrich, Taufkirchen, Germany; rB1R cells: D-MEM/F12, Gibco Invitrogen, Karlsruhe, Germany) with 10 vol. % FBS (foetal bovine serum, Gibco Invitrogen GmbH, Karlsruhe, Germany or PAN Biotech GmbH, Aidenbach, Germany).
On the following day the cells are loaded with 2.13 μM Fluo-4 (Molecular Probes Europe BV, Leiden, Netherlands) in HBSS buffer (Hank's buffered saline solution, Gibco Invitrogen GmbH, Karlsruhe, Germany) with 2.5 mM probenecid (Sigma-Aldrich, Taufkirchen, Germany) and 10 mM HEPES (Sigma-Aldrich, Taufkirchen, Germany) for 60 min at 37° C. The plates are subsequently washed twice with HBSS buffer, and HBSS buffer which additionally contains 0.1% BSA (bovine serum albumin; Sigma-Aldrich, Taufkirchen, Germany), 5.6 mM glucose and 0.05% gelatine (Merck KGaA, Darmstadt, Germany) is added. After a further incubation of 20 minutes at room temperature, the plates are inserted into the FLIPR for Ca^2+ measurement.
Alternatively they are washed with buffer A (15 mM HEPES, 80 mM NaCl, 5 mM KCl, 1.2 mM CaCl2, 0.7 mM MgSO4, 2 g/l glucose, 2.5 mM probenecid) and loaded with buffer A with added 2.5 μM Fluo-4 and 0.025% Pluronic F127 (Sigma-Aldrich, Taufkirchen, Germany). The cells are then washed twice with buffer A and incubated for 30 minutes with buffer A, which additionally contains 0.05% BSA and 0.05% gelatine, at room temperature and then used for Ca^2+ measurement in the FLIPR. The Ca^2+-dependent fluorescence is measured here before and after addition of substances (λex=488 nm, λem=540 nm). The quantification is performed by measuring the highest fluorescence intensity (FC, fluorescence counts) over time.
The FLIPR protocol comprises two additions of substance. Test substances (10 μM) are first pipetted onto the cells and the Ca^2+ inflow is compared with the control (hB1R: Lys-Des-Arg^9 bradykinin>=50 nM; rB1R: Des-Arg^9 bradykinin 10 μM). The value in % activation based on the Ca^2+ signal after addition of Lys-Des-Arg^9 bradykinin (>=50 nM) or Des-Arg^9 bradykinin (10 μM) is obtained therefrom. After incubation for 10-20 minutes, Lys-Des-Arg^9 bradykinin (hB1R) or Des-Arg^9 bradykinin (rB1R) is applied in the EC80 concentration and the inflow of Ca^2+ is likewise determined.
Antagonists lead to a suppression of the Ca^2+ inflow. The % inhibition in comparison with the maximum achievable inhibition is calculated. […]

On to `O=C(CCn1ccc2ccc(N3Cc4cccc(Cl)c4C3=O)cc21)N1CCC2(CC1)CCN(c1ccncc1)CC2` [Compound G-07, 7-Chloro-2-[1-[3-oxo-3-(9-pyridin-4-yl-3,9-diazaspiro[5.5]undecan-3-yl)-propyl]-1H-indol-6-yl]-2,3-dihydro-isoindol-1-one], for which the inhibition at 10 µM was found to be 96%.

Regarding `O=C(Cn1ccc2cccc(N3Cc4cccc(Cl)c4C3=O)c21)N1CCC2(CC1)CCN(c1ccncc1)CC2` [Compound G-11, 7-Chloro-2-(1-(2-oxo-2-(9-(pyridin-4-yl)-3,9-diazaspiro[5.5]undecan-3-yl)ethyl)-1H-indol-7-yl)isoindolin-1-one], the inhibition at 10 µM turned out to be 46%.
